Where two headings read alike, the source gives them in different places.
What was measured:
HDAC6 recombinant enzyme = target: T1, HDAC6 recombinant enzyme (Homo sapiens, UniProt Q9UBN7); test: Fluorimetric HDAC6 assay; format: biochemical; conditions: singlicate
T1 sequence (Q9UBN7 1-1215): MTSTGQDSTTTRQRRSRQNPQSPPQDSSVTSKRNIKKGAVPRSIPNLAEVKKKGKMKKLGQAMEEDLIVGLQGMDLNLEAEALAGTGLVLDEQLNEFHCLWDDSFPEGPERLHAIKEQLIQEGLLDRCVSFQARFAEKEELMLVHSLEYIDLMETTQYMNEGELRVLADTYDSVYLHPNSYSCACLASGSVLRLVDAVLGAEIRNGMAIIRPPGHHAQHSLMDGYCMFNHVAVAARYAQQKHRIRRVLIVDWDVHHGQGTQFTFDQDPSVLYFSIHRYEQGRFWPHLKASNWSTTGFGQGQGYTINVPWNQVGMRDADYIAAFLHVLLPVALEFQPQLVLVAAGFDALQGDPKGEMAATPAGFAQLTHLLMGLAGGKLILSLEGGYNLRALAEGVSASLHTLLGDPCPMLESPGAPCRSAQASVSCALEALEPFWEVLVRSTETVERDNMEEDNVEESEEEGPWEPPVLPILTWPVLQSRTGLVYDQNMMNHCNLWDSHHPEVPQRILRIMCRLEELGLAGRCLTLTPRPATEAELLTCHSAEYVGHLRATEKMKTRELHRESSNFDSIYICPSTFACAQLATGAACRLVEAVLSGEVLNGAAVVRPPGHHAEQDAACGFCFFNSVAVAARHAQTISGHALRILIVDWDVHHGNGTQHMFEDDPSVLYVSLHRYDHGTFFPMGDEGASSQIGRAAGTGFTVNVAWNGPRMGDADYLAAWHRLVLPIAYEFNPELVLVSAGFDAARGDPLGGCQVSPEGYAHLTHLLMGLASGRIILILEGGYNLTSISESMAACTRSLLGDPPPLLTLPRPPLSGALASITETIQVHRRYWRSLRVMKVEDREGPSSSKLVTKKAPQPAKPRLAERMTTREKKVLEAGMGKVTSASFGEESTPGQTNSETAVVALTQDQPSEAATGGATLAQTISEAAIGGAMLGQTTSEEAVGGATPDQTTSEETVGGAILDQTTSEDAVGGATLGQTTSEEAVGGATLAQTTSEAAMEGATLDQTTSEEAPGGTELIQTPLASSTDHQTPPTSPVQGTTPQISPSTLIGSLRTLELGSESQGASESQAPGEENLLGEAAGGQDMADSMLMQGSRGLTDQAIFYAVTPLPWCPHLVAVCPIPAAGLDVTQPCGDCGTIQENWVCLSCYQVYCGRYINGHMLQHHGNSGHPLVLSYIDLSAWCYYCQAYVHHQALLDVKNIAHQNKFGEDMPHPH
Experimental: In vitro assessments of compounds on the HDAC6 enzyme were performed, as described in our previous works. […] The blank employed for curve fitting was evaluated on a solution of the buffer containing a concentration of […] of DMSO. IC50 values were calculated by using the GraphPad Prism 4 program based on a sigmoidal dose–response equation.

[1] = system: PC-3 prostate cancer cells; test: Cell viability assay (MTT) on PC-3 cells; format: cell-based, human; conditions: 72 h treatment, MTT, mean of three independent experiments ± SEM, read-out: PC-3 GI50
Experimental: The human prostate cancer cell line PC-3 (ATCC Cat# CRL-1435) was grown in Ham’s F12 (Biowest, Nuaillé, France) medium, while the human prostate cancer cell line LNCaP (ATCC Cat# CRL-1740) was grown in RPMI 1640 (Biowest, Nuaillé, France) medium. Both media were supplemented with 10% Fetal Bovine Serum (FBS, Gibco, Fisher Scientific Italia, Segrate, Italy), 2 mM glutamine, 100 U/mL penicillin, and 100 μg/mL streptomycin. PC-3 and LNCaP cells were maintained at 37 °C in a humidified 5% CO2 atmosphere.
PC-3 and LNCaP cells were seeded at a density of 4000 and 6000 cells/well into a 96-well plate, respectively, together with a calibration curve of known cell numbers. The following day, the cells were treated with the indicated test compounds at different concentrations starting at 75μM with 2-fold serial dilutions. Cell viability was evaluated after 72h by colorimetric MTT (PC-3) or PrestoBlue™ (LNCaP) cell viability reagents. A total of 0.5 mg/mL of thiazolyl blue tetrazolium bromide (MTT) (Sigma-Aldrich, St. Louis, MO, USA) in Ham’s F12 medium was added to the wells, and the plate was incubated at 37 °C for 2 h. Medium containing unconverted MTT was removed, and 100 μL of MTT solvent (4 mM HCl, 0.1% NP40, in isopropyl alcohol) was added to the wells in order to solubilize MTT crystals. After 15 min of incubation at room temperature, the absorbance values at 570 nm were obtained with a Multiskan FC Microplate Photometer (Thermo Fisher Scientific, Waltham, MA, USA). PrestoBlue reagent (#A13261, Thermo Fisher Scientific, Waltham, MA, USA) was added to the medium (1:10 v/v) and incubated for 1 h at 37 °C. Cell viability was calculated by quantifying PrestoBlue reduction by measuring the absorbance at 570 and 620 nm, according to the manufacturer’s protocol. The viability of untreated cells was arbitrarily set at 100%, and the concentration at which cellular growth is inhibited by 50% (GI50) was determined. Three independent experiments were performed.

| IC50 (HDAC6 recombinant enzyme) | GI50 ([1]; Homo sapiens, PC-3, 72 h) | GI50 [1] | SMILES |
| --- | --- | --- | --- |
| 2.7 µM | 21 ± 5.4 µM | – | O=C(Nc1ncccc1O)c1ccc(-c2noc(C(F)(F)F)n2)cc1 [Compound 18] |
| 6.5 µM | ~50 µM | 51.8 ± 0.6 µM | O=C(c1cc(OCc2ccccc2)ccc1O)N1CCC(c2noc(C(F)(F)F)n2)CC1 [Compound 8] |
| 0.005 µM | 13.9 ± 2.9 µM | – | CC(C)[C@H](C(=O)NCc1ccc(C(=O)NO)cc1)N1Cc2ccccc2C1=O [Compound 11] |
